Laboratory results from patent EP4385984A1, “PYRIDINE-N-OXIDES AS INHIBITORS OF NAV1.8” (Grünenthal GmbH, priority 2022, dated 2024).

target: T1, human NaV1.8 (Homo sapiens, UniProt Q9Y5Y9); experiment: Electrophysiology: automated whole-cell voltage-clamp (patch clamp) recordings of sodium currents, Qube384; type: cell-based; conditions: HEK-NaV1.8 (NM 006514.1) with b3 recombinant cell line, multi hole plates, ambient room temperature, read-out: Potency category (human NaV1.8 IC50)
T1 construct: expressed in transfected cells; host or cells: HEK
T1 sequence (Q9Y5Y9 whole entry): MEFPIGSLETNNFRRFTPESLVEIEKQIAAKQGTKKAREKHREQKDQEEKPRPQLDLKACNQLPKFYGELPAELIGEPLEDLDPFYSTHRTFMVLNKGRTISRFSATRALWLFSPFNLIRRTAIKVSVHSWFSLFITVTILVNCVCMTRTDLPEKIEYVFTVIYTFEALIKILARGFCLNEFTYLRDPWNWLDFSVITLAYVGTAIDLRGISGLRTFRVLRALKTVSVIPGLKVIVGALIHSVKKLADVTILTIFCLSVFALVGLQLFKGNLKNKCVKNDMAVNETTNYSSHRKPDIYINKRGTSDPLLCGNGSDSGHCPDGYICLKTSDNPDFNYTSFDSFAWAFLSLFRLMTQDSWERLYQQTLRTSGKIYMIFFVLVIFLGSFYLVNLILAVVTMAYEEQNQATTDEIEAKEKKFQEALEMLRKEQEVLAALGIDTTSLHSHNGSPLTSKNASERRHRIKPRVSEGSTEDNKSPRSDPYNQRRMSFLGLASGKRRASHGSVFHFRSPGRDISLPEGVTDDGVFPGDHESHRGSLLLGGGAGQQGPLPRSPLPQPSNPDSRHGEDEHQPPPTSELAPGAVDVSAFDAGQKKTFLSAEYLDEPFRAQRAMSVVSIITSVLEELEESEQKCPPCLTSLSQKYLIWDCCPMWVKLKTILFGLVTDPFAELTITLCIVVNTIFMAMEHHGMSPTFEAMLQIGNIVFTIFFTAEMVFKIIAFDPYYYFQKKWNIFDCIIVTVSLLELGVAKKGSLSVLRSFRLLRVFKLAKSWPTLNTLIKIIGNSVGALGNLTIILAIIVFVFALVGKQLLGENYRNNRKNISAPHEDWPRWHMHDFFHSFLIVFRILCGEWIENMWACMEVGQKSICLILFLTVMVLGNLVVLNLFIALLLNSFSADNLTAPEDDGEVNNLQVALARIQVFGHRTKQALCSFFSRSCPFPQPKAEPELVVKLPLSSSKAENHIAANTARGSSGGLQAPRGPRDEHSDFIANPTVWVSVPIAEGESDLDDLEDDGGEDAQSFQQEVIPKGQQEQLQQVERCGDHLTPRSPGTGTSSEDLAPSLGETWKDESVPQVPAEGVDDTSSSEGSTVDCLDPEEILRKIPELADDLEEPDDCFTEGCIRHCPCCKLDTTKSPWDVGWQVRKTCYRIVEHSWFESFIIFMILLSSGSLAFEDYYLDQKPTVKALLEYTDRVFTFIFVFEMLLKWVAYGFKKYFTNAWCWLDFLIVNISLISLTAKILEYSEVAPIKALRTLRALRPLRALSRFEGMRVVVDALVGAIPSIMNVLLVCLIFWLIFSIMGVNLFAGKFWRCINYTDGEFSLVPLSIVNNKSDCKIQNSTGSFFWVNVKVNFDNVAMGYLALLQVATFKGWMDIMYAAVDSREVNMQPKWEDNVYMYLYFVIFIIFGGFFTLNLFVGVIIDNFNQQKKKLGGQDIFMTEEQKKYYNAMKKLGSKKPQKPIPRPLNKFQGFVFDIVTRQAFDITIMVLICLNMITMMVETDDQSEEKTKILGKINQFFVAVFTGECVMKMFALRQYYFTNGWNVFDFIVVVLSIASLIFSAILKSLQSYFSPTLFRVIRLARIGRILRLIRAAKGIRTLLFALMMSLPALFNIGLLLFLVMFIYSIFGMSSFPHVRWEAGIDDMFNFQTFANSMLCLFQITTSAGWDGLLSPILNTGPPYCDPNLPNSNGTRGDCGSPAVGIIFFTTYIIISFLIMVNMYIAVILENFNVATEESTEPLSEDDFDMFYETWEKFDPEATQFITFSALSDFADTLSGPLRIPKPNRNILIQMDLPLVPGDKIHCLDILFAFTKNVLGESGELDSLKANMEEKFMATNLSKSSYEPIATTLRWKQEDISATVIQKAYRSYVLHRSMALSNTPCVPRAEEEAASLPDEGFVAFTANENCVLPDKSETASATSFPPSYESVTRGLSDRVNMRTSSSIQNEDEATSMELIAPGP
Procedure: The following NaV1.8 recombinant cell line was used for recordings: HEK-NaV1.8 (NM 006514.1) with b3 (NM_018400.3).
Sodium currents were measured using the patch clamp technique in the whole-cell configuration using the Qube384 (Sophion A/S, Copenhagen, Denmark) automated voltage clamp platform. "Multi hole" plates were used for the cell line expressing NaV1.8 while "single hole" plates were used for the recombinant cell lines expressing the other subtypes. Appropriate filters (for minimum seal resistance and minimum current size) and series resistance compensation (for high quality sodium channel recordings) were applied. Data was collected at ambient room temperature.
The recording […] solution contained (in mM): NaCl 145 mM, KCl 4 mM, CaCl2 2 mM, MgCh 1 mM, HEPES 10 mM, Glucose 10 mM, pH 7.4 (NaOH). The […] recording solution contained (in mM): CsF 120 mM, CsCl 20 mM, NaCl 10 mM, EGTA 10 mM, HEPES 10 mM, pH 7.2 (CsOH). Currents were recorded at 25 kHz sampling frequency and filtered at 5 kHz. Series resistance compensation was applied at 65%. Vehicle (VEH) is the control condition where cells are exposed to 0.3 % DMSO without compound. All runs include VEH controls being exposed to the same voltage protocols to assess non-compound related phenomena such as run down and then used to isolate compound dependent effects on currents.
To check for state-dependence inhibition, the following voltage-sequence was applied every 20 seconds: From a resting membrane potential of-120 mV, the first test pulse (P1; 20 ms to -10 mV) was applied to check for channels in the Resting State followed by a brief recovery (20 ms to -120 mV), then holding the membrane voltage to V1/2 (4 seconds at voltage to obtain half the channel at Rest and half Inactivated) with a subsequent second test pulse (P2; 20 ms to -10 mV) to check for channels in the Inactivated State, followed by another brief recovery (20 ms to -120 mV) and a final third test pulse (P3; 20 ms to -10 mV) to check for recovered channels.
To check for frequency-dependent inhibition, a 10 Hz protocol and a 20 Hz protocol were applied; namely,
From a resting membrane potential of -120 mV, 40-pulses (10 ms to -10 mV) was applied at 10 Hz (at 100 ms between pulses) and then at 20 Hz (at 50 ms between pulses).
Each parameter was recorded (P1, P2, P3, P40 from 10Hz and P40 from 20Hz) during a control period (lasting ~ 5 minutes) when establishing the baseline and during compound period (lasting ~ 12 minutes) when test compound (or vehicle) was applied. For each parameter, the value at the end of the compound period was normalized to the vehicle baseline; as follows Normalized Inhibition(NormCPD) = (CPD Valueend CPD period)/(VEH Valueend Control Period) [formula]
To adjust for any variance in the Na^+ current signal during the compound period (owing to cumulative inactivation independent of compound or shifts in biophysics over time), a dedicated segment of the recording wells in each 384 plate were dedicated to having only vehicle exposure. These vehicle-only recordings were used to correct for any apparent "run-up" or "run-down" in the experiment. Normalized Inhibition(NormVEH) = (VEH Valueend CPD period)/(VEH Valueend Control Period) [formula]
The adjusted inhibition was calculated as follows: % Inhibitioncorrected = 100 × (NormCPD −NormVEH)/(100−NormVEH) [formula]
Percent inhibition was determined and IC50 values were calculated using a 4 parameter logistic model within XLFit Software (IDBS, Boston MA): %Inhibitioncorrected = A + ((B−A))/((1 + (((x)/(C)))^D) [formula] where A and B are the maximal and minimum inhibition respectively, C is the IC50 concentration and D is the (Hill) slope.

`Cc1c(C(C)(F)F)nn(CC2CC(F)(F)C2)c1C(=O)Nc1cc[n+]([O-])c(C(N)=O)c1` [Example 3, 2-carbamoyl-4-(1-((3,3-difluorocyclobutyl)methyl)-3-(1,1-difluoroethyl)-4-methyl-1H-pyrazole-5-carboxamido)pyridine 1-oxide] and `Cc1c(C(C)(F)F)nn(C[C@@H]2CCC(F)(F)C2)c1C(=O)Nc1cc[n+]([O-])c(C(N)=O)c1` [Example 1a, (R)-2-Carbamoyl-4-(1-((3,3-difluorocyclopentyl)methyl)-3-(1,1-difluoroethyl)-4-methyl-1H-pyrazole-5-carboxamido)pyridine 1-oxide] fall in the same range of IC50: 100 to 1000 nM for the first, 100 to 1000 nM for the second.

First: CC(F)(F)c1nn(CC2CC(F)(F)C2)c(C(=O)Nc2ccnc(C(=O)O)c2)c1C(F)(F)F [Example 7, 4-(1-((3,3-difluorocyclobutyl)methyl)-3-(1,1-difluoroethyl)-4-(trifluoromethyl)-1H-pyrazole-5-carboxamido)picolinic acid]
Second: CC(F)(F)c1nn(CC2CC(F)(F)C2)c(C(=O)Nc2ccc(C(=O)O)nc2)c1C(F)(F)F [Example 8, 5-(1-((3,3-difluorocyclobutyl)methyl)-3-(1,1-difluoroethyl)-4-(trifluoromethyl)-1H-pyrazole-5-carboxamido)picolinic acid]
The IC50 of the first is higher: 1000 to 10000 nM for the first, 100 to 1000 nM for the second. The second is the more potent here.

`Cc1c(C(C)(F)F)nn(C[C@H]2CCC(F)(F)C2)c1C(=O)Nc1cc[n+]([O-])c(C(N)=O)c1` [Example 1b, (S)-2-Carbamoyl-4-(1-((3,3-difluorocyclopentyl)methyl)-3-(1,1-difluoroethyl)-4-methyl-1H-pyrazole-5-carboxamido)pyridine 1-oxide] and `Cc1c(C(C)(F)F)nn(CC2(C)CCC(F)(F)C2)c1C(=O)Nc1cc[n+]([O-])c(C(N)=O)c1` (single isomer, unassigned) [Example 5a, 2-carbamoyl-4-(1-((3,3-difluoro-1-methylcyclopentyl)methyl)-3-(1,1-difluoroethyl)-4-methyl-1H-pyrazole-5-carboxamido)pyridine 1-oxide] cannot be ordered by IC50: 100 to 1000 nM for the first, at most 100 nM for the second.

`O=C(O)c1cc(NC(=O)c2c(C(F)(F)F)c(C3CC3)nn2CC2CCC(F)(F)CC2)ccn1` [Example 9, 4-(3-cyclopropyl-1-((4,4-difluorocyclohexyl)methyl)-4-(trifluoromethyl)-1H-pyrazole-5-carboxamido)picolinic acid] and `CP(C)(=O)c1cc(NC(=O)c2c(C(F)(F)F)cnn2CC2CCCCC2)ccn1` [Example 10, 1-(cyclohexylmethyl)-N-(2-(dimethylphosphoryl)pyridin-4-yl)-4-(trifluoromethyl)-1H-pyrazole-5-carboxamide] fall in the same range of IC50: 100 to 1000 nM for the first, 100 to 1000 nM for the second.

Compound `Cc1c(C(C)(F)F)nn(CC2(C)CC(F)(F)C2)c1C(=O)Nc1cc[n+]([O-])c(C(N)=O)c1` [Example 4, 2-carbamoyl-4-(1-((3,3-difluoro-1-methylcyclobutyl)methyl)-3-(1,1-difluoroethyl)-4-methyl-1H-pyrazole-5-carboxamido)pyridine 1-oxide] has an IC50 of at most 100 nM.
